Columns and labels:
[1] = ciprofloxacin drug release from ocular device in Purilens Plus buffer, UV spectroscopy; format: physicochemical
Procedure: The following details the method utilized to monitor ciprofloxacin drug release from an ocular device of this example. Solutions of ciprofloxacin, in a concentration range of 5 ppm to 1,000 ppm, were prepared in Purilens Plus buffer (Purilens Plus is a preservative-free pH-balanced saline solution manufactured by The Lifestyle Company). A UV scanning spectrophotometer was utilized to generate a calibration curve of peak absorbance (λmax=272 nm) versus concentration, in gm/100 ml, of ciprofloxacin.
A device from this example weighing between 100 and 150 mg was placed in a 4 ml vial. To the vial was added 3.0 ml of Purilens Plus buffer. After 24 hours at 37° C., the sample was removed and placed in another 4 ml vial and covered with 3.0 ml of fresh Purilens Plus buffer. The 24-hour release vial was capped, labeled and held for analysis. This procedure was repeated four more times to obtain 1-, 2-, 3-, 4- and 5-day release data. The sampling interval was then expanded to every 3 to 5 days and so on. The release study was carried out for a total of 60 days.
The drug release samples were analyzed by UV spectroscopy and absorbance readings converted to weight of drug via the calibration curve.

[2] = timolol drug release from ocular device in Unisol 4 buffer, UV spectroscopy; format: physicochemical; settings: Example 11 polymer matrix with dissolved timolol free base; release study 90 days, 37° C., Unisol 4 buffer (FIG. 16)
Procedure: The following details the method utilized to monitor timolol drug release from an ocular device of this example. Solutions of timolol maleate, in a concentration range of 5 ppm to 1,000 ppm, were prepared in Unisol® 4 buffer (Unisol® 4 is a preservative-free pH-balanced saline solution manufactured by Alcon Laboratories). A UV scanning spectrophotometer was utilized to generate a calibration curve of peak absorbance (λmax=294 nm) versus concentration, in gm/100 ml, of timolol maleate. A calibration curve for timolol free base was then generated. A device weighing between 100 and 150 mg was placed in a 4 ml vial. To the vial was added 2.0 ml of Unisol® 4 buffer. After 24 hours at 37° C., the sample was removed and placed in another 4 ml vial and covered with 2.0 ml of fresh Unisol® 4 buffer. The 24-hour release vial was capped, labeled and held for analysis. This procedure was repeated four more times to obtain 1-, 2-, 3-, 4- and 5-day release data. The sampling interval was then expanded to every 3 to 5 days and so on. The release study was carried out for a total of 90 days. The drug release samples were analyzed by UV spectroscopy and absorbance readings converted to weight of drug via the calibration curve. A plot of cumulative weight, in micrograms, of drug released versus time was generated.

Row | Structure (SMILES) | amount of ciprofloxacin released ([1]; 60 days release study, 37° C., Purilens Plus buffer, Example 12 hydrogel device, initial loading about 8.67 mg) [mg] | ciprofloxacin released, share of initial loading ([1]; in the 60 days, 4.74 mg of about 8.67 mg loading) [%] | timolol release from device [2]
1 | O=C(O)c1cn(C2CC2)c2cc(N3CCNCC3)c(F)cc2c1=O [ciprofloxacin] | 4.74 | 55 | –
2 | CC(C)(C)NC[C@H](O)COc1nsnc1N1CCOCC1 [timolol] | – | – | releases timolol in a controlled manner over several months

Source: patent US20100233241A1, “OPHTHALMIC DRUG DELIVERY SYSTEM AND APPLICATIONS” (VISTA SCIENTIFIC LLC, priority 2009, published 2010)
